# Experiments:
# [1] = tested on: VEGFD, VEGF, VEGFC and VEGFR3; assay: qRT-PCR analysis of shRNA knock-down of VEGF family members; type: cell-based, mice; conditions: hippocampal neurons infected with rAAV
# Protocol: Total RNA was isolated at DIV10 to DIV13 from hippocampal primary neuron cultures or isolated brain tissues with Rneasy Mini Kit (Qiagen, Hilden, Germany) including an optional Dnase I treatment at room temperature for 15 min according to manufacturer's instructions (Qiagen). 1.2 μg of extracted RNA was reverse transcribed into first strand cDNA using High Capacity cDNA Reverse Transcription kit (Applied Biosystems, Foster City, Calif.). Quantitative reverse transcriptase PCR (qRT-PCR) was done on an ABI7300 thermal cycler using Universal qRT-PCR master mix with TaqMan Gene Expression Assays for the indicated genes (Applied Biosystems). The following TaqMan Gene Expression Assays were used in this study: Gusb (Mm00446953_m1), cFos (Mm00487425_m1), VEGFD (Mm00438965_m1), VEGFC (Mm01202432_m1), VEGF (Mm01281449_m1), VEGFR3 (Mm01292618_m1), beta-actin (Mm00607939_s1), beta-2 microglobulin (Mm00437762_m1), CBP (Mm01342435_m1), p38 MAPK alpha (Mm00442497_m1), p38 MAPK beta (Mm00440955_m1). Expression of target genes was normalized against the expression of Gusb as endogenous control gene. Data were derived from at least 5 independent experiments. For expression of shRNAs, an rAAV vector containing the U6 promoter for shRNA expression and a CaMKII promoter driving mCherry expression was used. Three different sequences were obtained from Open Biosystems ([…] 2 and […] 3), cloned and tested for silencing efficiency. […] As control, a scramble version of this sequence ([…] ID NO: 2) and the vector carrying only the mCherry ([…]) were used. Shp38alpha [NT] ID NO: 3), shp38beta [NT] ID NO: 4), […] ID NO: 5), […] ID NO: 6) and […] ID NO: 7; sequence obtained from Open Biosystems www.openbiosystems.com) were also cloned into the same vector. CBP expression level was knocked down using a pool of four short interfering RNAs (siRNAs) targeting mouse CBP (Accell siRNA SMARTpool; Thermo Scientific Dharmacon). The SMARTpool is a group of four siRNAs that have been screened to reduce a variety of potential off-target effects including the inclusion of miRNA (microRNA)-like seed motifs. Silencing of GAPDH was measured using Accell mouse GAPDH as a positive control, and as a negative control, a non-targeting Accell mouse siRNA pool was used. In addition, a fluorescently labeled non-targeting Accell mouse siRNA was also used to evaluate penetration efficiency in hippocampal neurons via immunocytochemistry. Briefly, 500 nM siRNAs were supplemented in the serum-free culturing medium at DIV8, and mRNA levels were analyzed at DIV13.
# VEGFD = assay: qRT-PCR analysis of VEGFD expression in hippocampal neurons; type: cell-based, mice; conditions: hippocampal neurons infected with rAAV
# Protocol: Total RNA was isolated at DIV10 to DIV13 from hippocampal primary neuron cultures or isolated brain tissues with Rneasy Mini Kit (Qiagen, Hilden, Germany) including an optional Dnase I treatment at room temperature for 15 min according to manufacturer's instructions (Qiagen). 1.2 μg of extracted RNA was reverse transcribed into first strand cDNA using High Capacity cDNA Reverse Transcription kit (Applied Biosystems, Foster City, Calif.).
# Quantitative reverse transcriptase PCR (qRT-PCR) was done on an ABI7300 thermal cycler using Universal qRT-PCR master mix with TaqMan Gene Expression Assays for the indicated genes (Applied Biosystems). The following TaqMan Gene Expression Assays were used in this study: Gusb (Mm00446953_m1), cFos (Mm00487425_m1), VEGFD (Mm00438965_m1), VEGFC (Mm01202432_m1), VEGF (Mm01281449_m1), VEGFR3 (Mm01292618_m1), beta-actin (Mm00607939_s1), beta-2 microglobulin (Mm00437762_m1), CBP (Mm01342435_m1), p38 MAPK alpha (Mm00442497_m1), p38 MAPK beta (Mm00440955_m1). Expression of target genes was normalized against the expression of Gusb as endogenous control gene. Data were derived from at least 5 independent experiments.
# CA1 pyramidal neurons = assay: Golgi staining-based morphometric analysis of CA1 neurons after stereotaxic rAAV delivery; type: in vivo, C57BL/6 mice; conditions: CA1 basal dendrites, 2.5 weeks after viral gene delivery
# Protocol: rAAVs were delivered by stereotaxic injection into the right dorsal hippocampus of 2 months old male C57BL/6 mice. For the Golgi staining-based morphometric analysis, viral particles were unilaterally injected over a period of 20 min at the following coordinates relative to Bregma: anteroposterior, −2.1 mm; mediolateral, −1.4 mm; dorsoventral, −1.4 to −1.8 mm from the skull surface. For behavior experiments mice were injected bilaterally.
# For 3D Sholl Analysis, total dendritic length and spine morphology were calculated using Object-Image freeware software with a specific set of macros (written by Dr. E. Ruthazer, McGill University, Quebec). Briefly, a z-Stack acquisition was imported, calibrated in Object-Image and manually traced. Total dendritic length was then computed. For Sholl analysis, the shell interval was set at 5 μm. All analyses were performed blind. In all in vitro experiments, for each condition, a minimum of 12 neurons from three independent preparations was analyzed. For the Golgi staining quantifications of 20 neurons for each condition from 4 different injected animals per viral construct were traced and analyzed.
# Golgi impregnation was performed using a Rapid Golgi Stain Kit (FD Neuro Technologies) according to the manufacturer's protocol. […]
# hippocampal cultures = assay: MEA recordings of spontaneous network activity; type: cell-based, mice; conditions: infected cultures versus rAAV-shSCR or rAAV-emptymC
# Protocol: MEA recordings were done as known in the art. From DIV7 to DIV13, recordings of spontaneous network activity were acquired for 5 min once per day.
substance,measurement,setting,value
"shVEGFD: shRNA targeting mouse VEGFD mRNA (GGGCTTCAGGAGCGAACAT; SEQ ID NO: 1), expressed from rAAV vector or plasmid with U6 promoter",mRNA levels of respective targets,[1],reduced mRNA levels of their respective targets
same,VEGFD mRNA levels,VEGFD,reduced VEGFD mRNA levels
same,total length of dendrites and their complexity in vivo,CA1 pyramidal neurons,reduced both the total length of dendrites and their complexity
same,spike frequencies,hippocampal cultures,reduced

# Reference: patent US20120308554A1, “VEGF-D/VEGFR2/3-MEDIATED REGULATION OF DENDRITES” (UNIVERSITAT HEIDELBERG, priority 2011, published 2012)
